# Test results as given in PubChem BioAssay (NCI).
#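 Tested at 5 concentrations; 48 h exposure; 96-well plates; endpoints linearly interpolated, else capped at highest concentration. TGI denotes the concentration required for complete inhibition of growth.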
# How the values were obtained:
# Assay in all cases: NCI-60 cell line screen, 48 h
# 786-0 renal = system: 786-0 renal
# A498 renal = system: A498 renal
# A549 NSCLC = system: A549 NSCLC
# ACHN renal = system: ACHN renal
# BT-549 breast = system: BT-549 breast
# CAKI-1 renal = system: CAKI-1 renal
# CCRF-CEM leukemia = system: CCRF-CEM leukemia
# COLO 205 colon = system: COLO 205 colon
# DU-145 prostate = system: DU-145 prostate
# EKVX NSCLC = system: EKVX NSCLC
# HCC-2998 colon = system: HCC-2998 colon
# HCT-116 colon = system: HCT-116 colon
# HCT-15 colon = system: HCT-15 colon
# HL-60(TB) leukemia = system: HL-60(TB) leukemia
# HOP-62 NSCLC = system: HOP-62 NSCLC
# HOP-92 NSCLC = system: HOP-92 NSCLC
# HS 578T breast = system: HS 578T breast
# HT29 colon = system: HT29 colon
# IGROV1 ovarian = system: IGROV1 ovarian
# K-562 leukemia = system: K-562 leukemia
# KM12 colon = system: KM12 colon
# LOX IMVI melanoma = system: LOX IMVI melanoma
# M14 melanoma = system: M14 melanoma
# MALME-3M melanoma = system: MALME-3M melanoma
# MCF7 breast = system: MCF7 breast
# MDA-MB-231 breast = system: MDA-MB-231 breast
# MDA-MB-435 = system: MDA-MB-435
# MOLT-4 leukemia = system: MOLT-4 leukemia
# NCI-H226 lung = system: NCI-H226 lung
# NCI-H23 lung = system: NCI-H23 lung
# NCI-H460 lung = system: NCI-H460 lung
# NCI-H522 lung = system: NCI-H522 lung
# NCI/ADR-RES ovarian = system: NCI/ADR-RES ovarian
# OVCAR-3 ovarian = system: OVCAR-3 ovarian
# OVCAR-4 ovarian = system: OVCAR-4 ovarian
# OVCAR-5 ovarian = system: OVCAR-5 ovarian
# OVCAR-8 ovarian = system: OVCAR-8 ovarian
# PC-3 prostate = system: PC-3 prostate
# RPMI-8226 leukemia = system: RPMI-8226 leukemia
# RXF 393 renal = system: RXF 393 renal
# SF-268 CNS = system: SF-268 CNS
# SF-295 CNS = system: SF-295 CNS
# SF-539 CNS = system: SF-539 CNS
# SK-MEL-2 melanoma = system: SK-MEL-2 melanoma
# SK-MEL-28 melanoma = system: SK-MEL-28 melanoma
# SK-MEL-5 melanoma = system: SK-MEL-5 melanoma
# SN12C renal = system: SN12C renal
# SNB-19 CNS = system: SNB-19 CNS
# SR leukemia = system: SR leukemia
# SW-620 colon = system: SW-620 colon
# TK-10 renal = system: TK-10 renal
# U251 CNS = system: U251 CNS
# UACC-257 melanoma = system: UACC-257 melanoma
# UACC-62 melanoma = system: UACC-62 melanoma
# UO-31 renal = system: UO-31 renal
# SK-OV-3 ovarian = system: SK-OV-3 ovarian
# SNB-75 CNS = system: SNB-75 CNS
# T-47D breast = system: T-47D breast
compound,measurement,setting,value
N#Cc1c(N2CCOCC2)[nH]c(=O)c(C(c2c(Cl)cccc2Cl)c2c(O)c(C#N)c(N3CCOCC3)[nH]c2=O)c1O,TGI,786-0 renal,> 100 µM
same,TGI,A498 renal,> 100 µM
same,TGI,A549 NSCLC,> 100 µM
same,TGI,ACHN renal,29.6 µM
same,TGI,BT-549 breast,32.8 µM
same,TGI,CAKI-1 renal,33.2 µM
same,TGI,CCRF-CEM leukemia,66.8 µM
same,TGI,COLO 205 colon,26.7 µM
same,TGI,DU-145 prostate,69.2 µM
same,TGI,EKVX NSCLC,39 µM
same,TGI,HCC-2998 colon,27.5 µM
same,TGI,HCT-116 colon,> 100 µM
same,TGI,HCT-15 colon,28.2 µM
same,TGI,HL-60(TB) leukemia,29.3 µM
same,TGI,HOP-62 NSCLC,79.3 µM
same,TGI,HOP-92 NSCLC,37.8 µM
same,TGI,HS 578T breast,58.1 µM
same,TGI,HT29 colon,28.9 µM
same,TGI,IGROV1 ovarian,35.3 µM
same,TGI,K-562 leukemia,23.2 µM
same,TGI,KM12 colon,32.7 µM
same,TGI,LOX IMVI melanoma,25.6 µM
same,TGI,M14 melanoma,42.9 µM
same,TGI,MALME-3M melanoma,26.8 µM
same,TGI,MCF7 breast,34.2 µM
same,TGI,MDA-MB-231 breast,30.4 µM
same,TGI,MDA-MB-435,30.2 µM
same,TGI,MOLT-4 leukemia,36.2 µM
same,TGI,NCI-H226 lung,37.5 µM
same,TGI,NCI-H23 lung,32.8 µM
same,TGI,NCI-H460 lung,> 100 µM
same,TGI,NCI-H522 lung,28.2 µM
same,TGI,NCI/ADR-RES ovarian,> 100 µM
same,TGI,OVCAR-3 ovarian,30.4 µM
same,TGI,OVCAR-4 ovarian,32.9 µM
same,TGI,OVCAR-5 ovarian,31.9 µM
same,TGI,OVCAR-8 ovarian,34.1 µM
same,TGI,PC-3 prostate,37.7 µM
same,TGI,RPMI-8226 leukemia,60.8 µM
same,TGI,RXF 393 renal,35.5 µM
same,TGI,SF-268 CNS,51.1 µM
same,TGI,SF-295 CNS,> 100 µM
same,TGI,SF-539 CNS,34.9 µM
same,TGI,SK-MEL-2 melanoma,39.5 µM
same,TGI,SK-MEL-28 melanoma,32.9 µM
same,TGI,SK-MEL-5 melanoma,35.4 µM
same,TGI,SN12C renal,34.5 µM
same,TGI,SNB-19 CNS,29.6 µM
same,TGI,SR leukemia,26.3 µM
same,TGI,SW-620 colon,36.8 µM
same,TGI,TK-10 renal,32.5 µM
same,TGI,U251 CNS,30.4 µM
same,TGI,UACC-257 melanoma,34 µM
same,TGI,UACC-62 melanoma,30.2 µM
same,TGI,UO-31 renal,33.5 µM
CC(C)(C)OC(=O)N(CCCCNCc1ccc2ccccc2c1)CCCNCc1ccc2ccccc2c1,TGI,786-0 renal,2.8 µM
same,TGI,A498 renal,3.47 µM
same,TGI,A549 NSCLC,3.82 µM
same,TGI,ACHN renal,3.39 µM
same,TGI,BT-549 breast,3.25 µM
same,TGI,CAKI-1 renal,2.45 µM
same,TGI,CCRF-CEM leukemia,2.86 µM
same,TGI,COLO 205 colon,2.72 µM
same,TGI,DU-145 prostate,3.1 µM
same,TGI,EKVX NSCLC,3.05 µM
same,TGI,HCC-2998 colon,0.549 µM
same,TGI,HCT-116 colon,2.4 µM
same,TGI,HCT-15 colon,3.12 µM
same,TGI,HL-60(TB) leukemia,0.507 µM
same,TGI,HOP-62 NSCLC,3.87 µM
same,TGI,HOP-92 NSCLC,3.18 µM
same,TGI,HS 578T breast,3.3 µM
same,TGI,HT29 colon,2.17 µM
same,TGI,IGROV1 ovarian,3.21 µM
same,TGI,K-562 leukemia,1.11 µM
same,TGI,KM12 colon,2.73 µM
same,TGI,MDA-MB-231 breast,2.28 µM
same,TGI,MDA-MB-435,3.47 µM
same,TGI,MOLT-4 leukemia,2.28 µM
same,TGI,NCI-H226 lung,3.08 µM
same,TGI,NCI-H23 lung,3.42 µM
same,TGI,NCI-H460 lung,2.18 µM
same,TGI,NCI-H522 lung,3.07 µM
same,TGI,NCI/ADR-RES ovarian,3.02 µM
same,TGI,OVCAR-4 ovarian,3.19 µM
same,TGI,OVCAR-5 ovarian,3.22 µM
same,TGI,OVCAR-8 ovarian,3.08 µM
same,TGI,PC-3 prostate,4.06 µM
same,TGI,SF-268 CNS,3.29 µM
same,TGI,SF-539 CNS,2.97 µM
same,TGI,SK-MEL-28 melanoma,3.39 µM
same,TGI,SK-OV-3 ovarian,3.56 µM
same,TGI,SN12C renal,3.32 µM
same,TGI,SNB-19 CNS,3.22 µM
same,TGI,SNB-75 CNS,2.99 µM
same,TGI,SW-620 colon,3.54 µM
same,TGI,T-47D breast,3.44 µM
same,TGI,TK-10 renal,3.07 µM
same,TGI,U251 CNS,3.49 µM
same,TGI,UACC-257 melanoma,3.42 µM
same,TGI,UACC-62 melanoma,3.08 µM
same,TGI,UO-31 renal,3.17 µM
